Source: article PMC8761492 (Life Science Alliance, 2022)
Values joined by “and” are separate entries in the source; they are usually repeats but may differ in a detail not shown here. Identical values can stand only once. Like-named read-outs stand apart in the source and are kept apart here. Starred links: 1 amine or outer side, 2 acyl side, 3 side chain; linkers in the order of their positions; H or OH if unused. Positions of bridges follow the written chain, without caps; N, C: chain ends. Non-standard residues stand in square brackets, D forms with d. Residues, ends and D or L forms follow the SMILES beside them. *: point of attachment. X1 = CC[C@H](C)[C@@H](N[*:1])[C@@H](O)CC(=O)O[C@H](C(=O)[C@H](C)C(=O)[*:2])C(C)C; NMeY = CN[C@@H](Cc1ccc(O)cc1)C(=O)O; dNMeL = CN[C@H](CC(C)C)C(=O)O; Pyruvoyl = CC(=O)C(=O)*

How the values were obtained:
COVID-19 = experiment: APLICOV-PC: mortality, ventilation, ICU admission and oxygen therapy; format: in vivo, human
Experimental: Secondary outcomes included change from baseline of viral load, as evaluated by quantitative PCR via central laboratory on nasopharyngeal exudate or sampled from the lower respiratory tract within 48 h before first administration of plitidepsin and on days 4, 7, 15, and 31, and the percentage of patients requiring oxygen therapy, noninvasive mechanical ventilation, invasive mechanical ventilation and/or intensive care unit admission, and the percentage of patients with a fatal outcome on days 7, 15, and 31.
Analysis for preliminary evidence of efficacy was performed on all patients who had efficacy assessments at baseline and at least one subsequent assessment during treatment.
In regards with subgroup analyses, safety and efficacy outcomes also were assessed by age-group (<65 versus ≥65 yr) and efficacy outcomes were assessed by disease severity at baseline. Safety outcomes were also assessed before and after the implementation of the protocol amendment.

[1] = Plasma protein binding by equilibrium dialysis, human plasma; format: in vitro ADME; details: male, human; for recovery at 100 ng/mL / fraction unbound at 5 h, 100 ng/mL: nominal 100 ng/mL; for recovery at 500 ng/mL / fraction unbound at 5 h, 500 ng/mL: nominal 500 ng/mL
Experimental: (§1) The binding of plitidepsin to plasma proteins was determined in vitro at three concentrations (100, 250 and 500 ng/ml) in male rat, dog and human plasma ([53]).
(§2) Rat (CD), beagle dog, and human blood was collected at Aptuit Srl from at least three male donors, and plasma prepared by centrifuging blood at 2,000g, 4°C for 10 min. Human plasma was obtained from healthy and fasted male volunteers. Na-heparin was used as the anti-coagulant for all species. All plasma was stored at approximately −20°C and thawed only once, on the day of the experiment.
(§3) Plasma protein binding was assessed using Rapid Equilibrium Dialysis plates pre-loaded with equilibrium dialysis membrane inserts (MWCO ∼8 kD).
(§4) Separation of free compound from protein-bound material was achieved by dialysis of the sample through the membrane under appropriate shaking at 37°C. The suitability of equilibrium dialysis as a method for protein binding determination of plitidepsin was assessed.
(§5) Before experimentation, the time required to reach equilibrium was determined in male rat and human plasma at one concentration (250 ng/ml) and six selected time points (2, 3, 4, 5, 6, and 7 h) at 37°C.
(§6) Plitidepsin stability was assessed in plasma (all species) and PBS at two concentrations (100 and 500 ng/ml for plasma; 0.5 and 50 ng/ml for PBS) by comparing plitidepsin concentration in spiked and preincubated plasma before and after incubation at 37°C for 5 h as determined previously.

plasma proteins = experiment: as above; format: in vitro ADME; details: for % Bound / % Recovery / % Unbound: single replicates
Experimental: as §1, §2, §3, §4, §5, §6

[2] = day 1 to Day 15, Moderate (N=23)
[3] = day 1 to Day 31, Moderate (N=23)
[4] = plasma, single replicates, read-out: % Bound (converted)
[5] = plasma, single replicates, read-out: % Unbound

SMILES: CC[C@H](C)[C@H]1NC(=O)[C@@H](NC(=O)[C@@H](CC(C)C)N(C)C(=O)[C@@H]2CCCN2C(=O)C(C)=O)[C@@H](C)OC(=O)[C@H](Cc2ccc(OC)cc2)N(C)C(=O)[C@@H]2CCCN2C(=O)[C@H](CC(C)C)NC(=O)[C@@H](C)C(=O)[C@H](C(C)C)OC(=O)C[C@@H]1O [Plitidepsin] (Pyruvoyl-P[dNMeL]T[X1]LP[NMeY](Me); ester 3-C)
- Patients requiring non-invasive mechanical ventilation at (COVID-19; day 1 to Day 7, Severe (N=15)): 26.7%
- Patients requiring oxygen therapy (high flow) at (COVID-19; day 1 to Day 7, Severe (N=15)): 26.7%
- Patients requiring oxygen therapy (low flow) at (COVID-19; day 1 to Day 7, Severe (N=15)): 100%
- Patients requiring oxygen therapy at (COVID-19; day 1 to Day 7, Severe (N=15)): 100%
- Patients requiring oxygen therapy (low flow) at (COVID-19; day 1 to Day 15, Mild (N=6)): 33.3%
- Patients requiring oxygen therapy at (COVID-19; day 1 to Day 15, Mild (N=6)): 33.3%
- Patients requiring non-invasive mechanical ventilation at (COVID-19; [2]): 4.3%
- Patients requiring oxygen therapy (high flow) at (COVID-19; [2]): 4.3%
- Patients requiring oxygen therapy (low flow) at (COVID-19; [2]): 78.3%
- Patients requiring oxygen therapy at (COVID-19; [2]): 78.3%
- Patients requiring ICU admission at (COVID-19; day 1 to Day 15, Severe (N=15)): 40%
- Patients requiring invasive mechanical ventilation and/or ICU admission at (COVID-19; day 1 to Day 15, Severe (N=15)): 40%
- Patients requiring invasive mechanical ventilation at (COVID-19; day 1 to Day 15, Severe (N=15)): 13.3%
- Patients requiring non-invasive mechanical ventilation at (COVID-19; day 1 to Day 15, Severe (N=15)): 40%
- Patients requiring oxygen therapy (high flow) at (COVID-19; day 1 to Day 15, Severe (N=15)): 40%
- Patients requiring oxygen therapy (low flow) at (COVID-19; day 1 to Day 15, Severe (N=15)): 100%
- Patients requiring oxygen therapy at (COVID-19; day 1 to Day 15, Severe (N=15)): 100%
- Patients requiring oxygen therapy (low flow) at (COVID-19; day 1 to Day 31, Mild (N=6)): 33.3%
- Patients requiring oxygen therapy at (COVID-19; day 1 to Day 31, Mild (N=6)): 33.3%
- Patients requiring non-invasive mechanical ventilation at (COVID-19; [3]): 4.3%
- Patients requiring oxygen therapy (high flow) at (COVID-19; [3]): 4.3%
- Patients requiring oxygen therapy (low flow) at (COVID-19; [3]): 78.3%
- Patients requiring oxygen therapy at (COVID-19; [3]): 78.3%
- Deaths at (COVID-19; day 1 to Day 31, Severe (N=15)): 13.3%
- Patients requiring ICU admission at (COVID-19; day 1 to Day 31, Severe (N=15)): 40%
- Patients requiring invasive mechanical ventilation and/or ICU admission at (COVID-19; day 1 to Day 31, Severe (N=15)): 40%
- Patients requiring invasive mechanical ventilation at (COVID-19; day 1 to Day 31, Severe (N=15)): 20%
- Patients requiring non-invasive mechanical ventilation at (COVID-19; day 1 to Day 31, Severe (N=15)): 46.7%
- Patients requiring oxygen therapy (high flow) at (COVID-19; day 1 to Day 31, Severe (N=15)): 40%
- Patients requiring oxygen therapy (low flow) at (COVID-19; day 1 to Day 31, Severe (N=15)): 100%
- Patients requiring oxygen therapy at (COVID-19; day 1 to Day 31, Severe (N=15)): 100%
- patients requiring nonmechanical invasive ventilation (COVID-19; moderate disease, one patient): 4.3%
- patients requiring intensive care support (COVID-19; severe disease at baseline, 6 of 15): 40%
- patients requiring nonmechanical invasive ventilation (COVID-19; severe disease, seven patients): 46.7%
- patients requiring intensive care support (COVID-19; six of 44 patients): 13.6%
- fraction unbound ([1]; independent of drug concentration): 0.02
- recovery at 100 ng/mL ([1]; plasma, Mean ± SD): 84.3 ± 6.4%
- fraction unbound at 5 h, 100 ng/mL ([1]; plasma, Mean ± SD, read-out: % Unbound): 0.017 ± 0.002
- recovery at 100 ng/mL ([1]; plasma, single replicates): 90.4%
- fraction unbound at 5 h, 100 ng/mL [1, 4]: 0.014
- fraction unbound at 5 h, 100 ng/mL [1, 5]: 0.014
- recovery at 250 ng/mL ([1]; plasma, nominal 250 ng/mL, Mean ± SD): 77 ± 17.6%
- fraction unbound at 5 h, 250 ng/mL ([1]; plasma, nominal 250 ng/mL, Mean ± SD, read-out: % Bound (converted)): 0.022
- fraction unbound at 5 h, 250 ng/mL ([1]; plasma, nominal 250 ng/mL, Mean ± SD, read-out: % Unbound): 0.022 ± 0.008
- fraction unbound at 5 h, 250 ng/mL ([1]; plasma, nominal 250 ng/mL, single replicates, read-out: % Bound (converted)): 0.03
- fraction unbound at 5 h, 250 ng/mL ([1]; plasma, nominal 250 ng/mL, single replicates, read-out: % Unbound): 0.03
- recovery at 500 ng/mL ([1]; plasma, mean, n=2): 80.4%
- fraction unbound at 5 h, 500 ng/mL ([1]; plasma, mean, n=2, read-out: % Bound (converted)): 0.019
- fraction unbound at 5 h, 500 ng/mL ([1]; plasma, mean, n=2, read-out: % Unbound): 0.019
- recovery at 500 ng/mL ([1]; plasma, single replicates): 82%
- fraction unbound at 5 h, 500 ng/mL [1, 4]: 0.019
- fraction unbound at 5 h, 500 ng/mL [1, 5]: 0.019
- fraction unbound at 100 ng/mL (plasma proteins; male, human, plasma, nominal 100 ng/mL, Mean ± SD, read-out: % Bound (converted)): 0.017
- % Bound (plasma proteins; nominal 100 ng/mL): 98.3% and 98.2%
- % Recovery (plasma proteins; nominal 100 ng/mL): 84.7% and 77.7%
- % Unbound (plasma proteins; nominal 100 ng/mL): 1.7% and 1.8%
- % Bound (plasma proteins; nominal 250 ng/mL): 98.5% and 98%
- % Recovery (plasma proteins; nominal 250 ng/mL): 56.7% and 87.3% and 87%
- % Unbound (plasma proteins; nominal 250 ng/mL): 1.5% and 2%
- % Bound (plasma proteins; nominal 500 ng/mL): 98%
- % Recovery (plasma proteins; nominal 500 ng/mL): 78.8%
- % Unbound (plasma proteins; nominal 500 ng/mL): 2%
